Source: patent US20060088815A1, “Method for evaluation of endocrine disruptive action” (THE UNIVERSITY OF TOKYO, priority 2004, published 2006)

Test system: hippocampal tissue slice
Assay: Excitatory postsynaptic potential of hippocampal tissue slices on a multiple-electrode probe; NMDA-induced long-term depression
Format: cell-based, rat
Conditions: substance 1 nM perfused for 30 minutes before NMDA (30 μM, 3 minutes)
Description: Now, an example of a specific embodiment for the above-mentioned evaluating method 1 will be illustrated. First, the preparation of a cell group and a setting method of experimental conditions are explained below. With regard to the cell group, a tissue slice which was a transversely cut in a hippocampal region along a long-axis which was cut out from a brain tissue of an adult rat using a vibratome (DSK ZERO 1; manufactured by Dosaka EM K.K.) was used. Thickness of the hippocampal tissue slice was made 300 μm.
For the measurement of an electrophysiological response of this hippocampal tissue slice, a multiple-electrode measuring apparatus MED 64 System (Alpha Med) was used. With regard to an electrode arranged in the hippocampal tissue slice, a multiple-electrode probe MED-P530A (Alpha Med) attached to this multiple-electrode measuring apparatus was used. On a substrate of this multiple-electrode probe, plural electrodes are previously arranged regularly with a predetermined interval (300 μm).
One sheet of the hippocampal tissue slice cut out by a vibratome was allowed to stand in a chamber placed on a substrate of one multiple-electrode probe and, at the same time, an artificial cerebrospinal fluid sufficiently saturated with a mixed gas of oxygen and carbon dioxide (95% oxygen gas and 5% carbon dioxide gas) was filled in the chamber whereby the hippocampal tissue slice was soaked in the artificial cerebrospinal fluid followed by being allowed to stand at room temperature for 1 hour or longer. With regard to the artificial cerebrospinal fluid, an aqueous solution containing 124 mM of NaCl, 1.25 mM of NaH2PO4.2H2O, 5 mM of KCl, 2 mM of MgSO4.7H2O, 2 mM of CaCl2, 22 mM of NaHCO3 and 10 mM of […] was used.
In this artificial cerebrospinal fluid, the hippocampal tissue slice was placed on the multiple-electrode probe so that the cells included in each of three regions comprising one dentate gyrus and two cornu ammonis regions near the surface of the hippocampal tissue slice were brought into contact with plural electrodes on the multiple-electrode probe. Thus, a stimulating electrode which applies electrical stimulation to presynaptic fiber projecting to the nerve cell group and a recording electrode which records excitatory postsynaptic potential induced by the electrical stimulation in the nerve cell group as accumulated potential are arranged for each of pyramidal cells of cornu ammonis CA1 field, pyramidal cells of cornu ammonis CA3 field and granular cells of dentate gyrus.
Electrical stimulation to a hippocampal tissue slice by a stimulating electrode was carried out by repeated application of electrical stimulation at intervals of 15 seconds in the order of a stimulating electrode arranged in a cornu ammonis CA1 field, a stimulating electrode arranged in a cornu ammonis CA3 field, a stimulating electrode arranges in a dentate gyrus and, again, a stimulating electrode arranged in a cornu ammonis CA1 field. The excitatory postsynaptic potential induced by the electrical stimulation was recorded for about 30 minutes and, after confirming that the accumulated potential was stabilized, strength of electrical stimulation applied from the stimulating electrode was set in each of the following steps. […] When the strength of the measured accumulated potential was saturated (or became constant), the strength of the saturated accumulated potential was defined as maximum (100%) and strength of electrical stimulation to be applied to the hippocampal tissue slice from the stimulating electrode was set so as to make the value 50% of the above maximum value.
In this Example, DES was used as an object substance, estradiol, which is one example of estrogen, was used as an agonist to hormone receptor and NMDA was used as a stimulant. […]

| Compound | excitatory postsynaptic potential 50 minutes after administration of NMDA, relative to that before administration of NMDA (cornu ammonis CA1 field) | excitatory postsynaptic potential 50 minutes after administration of NMDA, relative to that before administration of NMDA (cornu ammonis CA3 field) | excitatory postsynaptic potential 50 minutes after administration of NMDA, relative to that before administration of NMDA (dentate gyrus) |
| --- | --- | --- | --- |
| CC/C(=C(/CC)c1ccc(O)cc1)c1ccc(O)cc1 [DES, diethylstilbestrol] | about 40% | about 75% | about 68% |
| C[C@]12CC[C@@H]3c4ccc(O)cc4CC[C@H]3[C@@H]1CC[C@@H]2O [estradiol] | about 40% | about 55% | about 80% |
